{"source": "patent US8524740B2", "about": "“Synthesis and anticancer activity of aryl and heteroaryl-quinolin derivatives” (Tairx, Inc., priority 2010, dated 2013)", "key": {"Colo205": {"test_system": "Colo205", "experiment": "MTT assay, Colo205 cells", "type": "cell-based", "settings": "Homo sapiens, COLO 205, Table 6", "description": "(§1) MTT (3-(4,5-Dimethylthiazol-2-yl)-2,5-diphenyltetrazolium bromide) assays. HL-60, Hep 3B, H460, A498, Colo205 and Detroit 551 cells were treated with tested compounds for the indicated periods. After treatment, cells were washed once with PBS and incubated with MTT (Sigma, St. Louis, Mo., USA) for 2 h. The formazan precipitate was dissolved in 150 μL of DMSO, and the absorbance was measured with an ELISA reader at 570 nm."}, "Hep3B": {"test_system": "Hep3B", "experiment": "MTT assay, Hep 3B cells", "type": "cell-based", "settings": "Homo sapiens, Table 6, MTT", "how_it_was_run": "(§2)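 Cells exposed to compounds for 48 h (other runs: indicated periods), then washed with PBS and given MTT for 2 h. Formazan dissolved in DMSO and read at 570 nm as a measure of cell growth.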"}, "HL-60": {"test_system": "HL-60", "experiment": "MTT assay, HL-60 cells", "type": "cell-based", "settings": "Homo sapiens, Table 6, MTT", "how_it_was_run": "as §2"}, "Detroit 551": {"test_system": "Detroit 551", "experiment": "MTT assay, Detroit 551 normal human cells", "type": "cell-based", "settings": "Homo sapiens, Detroit 551; Table 6; MTT", "how_it_was_run": "(§3)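 H460 and Detroit 551 cells exposed to test compounds for 48 h (vehicle control); growth measured by MTT reduction, 2 h MTT incubation, formazan dissolved in DMSO, absorbance at 570 nm.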"}, "A498": {"test_system": "A498", "experiment": "MTT assay, A498 cells", "type": "cell-based", "settings": "Homo sapiens, Table 6", "description": "as §1"}, "H460": {"test_system": "H460", "experiment": "MTT assay, H460 cells", "type": "cell-based", "settings": "Homo sapiens, NCI-H460; Table 6; MTT", "how_it_was_run": "as §3"}}, "data": [{"smiles": "COc1cc(O)cc(-c2cc(=O)c3cc4c(cc3[nH]2)OCO4)c1", "note": "[Compound 166, 2-(3-Hydroxy-5-methoxyphenyl)-6,7-methylenedioxyquinolin-4-one]", "values": [{"measurement": "IC50", "setting": "Colo205", "result": "> 50", "unit": "µM"}, {"measurement": "IC50", "setting": "Hep3B", "result": "> 50", "unit": "µM"}, {"measurement": "IC50", "setting": "HL-60", "result": 400, "unit": "nM"}, {"measurement": "IC50", "setting": "Detroit 551", "result": "> 50", "unit": "µM"}, {"measurement": "melting point", "result": "> 300", "unit": "°C"}, {"measurement": "IC50", "setting": "A498", "result": "> 50", "unit": "µM"}, {"measurement": "IC50", "setting": "H460", "result": "> 50", "unit": "µM"}]}]}
